Consider one compound from PMC10150366, “Discovery of an In Vivo Chemical Probe for BCL6 Inhibition by Optimization of Tricyclic Quinolinones” (Journal of Medicinal Chemistry, 2023).

Holding throughout (format): cell-based
In one experiment the test system is OCI-Ly3. The experiment can be described thus: 14-day cell proliferation assay, OCI-Ly3. The note with it: Homo sapiens, 14-day assay, BCL6-independent line. The text has this:
DMSO final concentration.
After a short centrifugation the
(1st emission filter) / 450-80 nm (2nd emission filter). The % inhibition at each test concentration was […]
sigmoidal four-parameter logistic fit equation.
2.3 Cell proliferation assay
Aldrich) supplemented with 10% FBS (Gibco). Compounds were initially dispensed into 96-well U-bottom […]
transferred onto the cells.
Assay plates containing cells
(Beckman Coulter). The volume of medium containing 2500 cells in the control well was calculated and this volume of cells was transferred from every well of the assay plates to the corresponding well of the fresh plates containing compound. After 14 days, CellTiter Glo reagent (Promega) was added to the medium in each well of the assay plate at a ratio of 1:2, mixed on a plate shaker, then incubated at room temperature for 10 minutes. Luminescence was measured using an Envision plate reader (Perkin Elmer) and the relative luminescence at each compound concentration, compared to DMSO alone, was calculated. GI50 were determined using a 4-parameter curve fit in Dotmatics (Bishops Stortford, UK).

In the next experiment the target is T1, EDNRA (Homo sapiens, UniProt P25101).
T1 sequence (P25101 21-427): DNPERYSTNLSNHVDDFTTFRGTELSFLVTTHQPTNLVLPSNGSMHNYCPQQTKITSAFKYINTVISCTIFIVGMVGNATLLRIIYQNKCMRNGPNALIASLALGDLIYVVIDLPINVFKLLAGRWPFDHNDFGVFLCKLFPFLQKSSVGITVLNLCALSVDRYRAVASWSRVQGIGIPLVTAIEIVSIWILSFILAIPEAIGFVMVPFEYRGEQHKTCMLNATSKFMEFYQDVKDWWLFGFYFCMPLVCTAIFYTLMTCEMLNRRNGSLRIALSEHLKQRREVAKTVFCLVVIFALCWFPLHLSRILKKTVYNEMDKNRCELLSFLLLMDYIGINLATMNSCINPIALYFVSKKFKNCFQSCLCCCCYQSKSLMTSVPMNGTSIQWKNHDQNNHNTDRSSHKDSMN
The experiment can be described thus: SAFETYscan Calcium Flux EDNRA Agonist. The text has this: (§1) Supplement jm3c00155_si_002.xlsx, sheet "SAFETYScan" | column: RC50 (uM); Max Response

Another experiment concerns the target ADORA2A (Homo sapiens, UniProt P29274). The experiment can be described thus: SAFETYscan Calcium Flux ADORA2A Antagonist.
Description: as §1
A general note: Calcium assays in cells follow changes in intracellular calcium, usually with a dye or a luminescent sensor.

In the next experiment the target is T2, ADRA1A (Homo sapiens, UniProt P35348).
T2 sequence (P35348 1-466): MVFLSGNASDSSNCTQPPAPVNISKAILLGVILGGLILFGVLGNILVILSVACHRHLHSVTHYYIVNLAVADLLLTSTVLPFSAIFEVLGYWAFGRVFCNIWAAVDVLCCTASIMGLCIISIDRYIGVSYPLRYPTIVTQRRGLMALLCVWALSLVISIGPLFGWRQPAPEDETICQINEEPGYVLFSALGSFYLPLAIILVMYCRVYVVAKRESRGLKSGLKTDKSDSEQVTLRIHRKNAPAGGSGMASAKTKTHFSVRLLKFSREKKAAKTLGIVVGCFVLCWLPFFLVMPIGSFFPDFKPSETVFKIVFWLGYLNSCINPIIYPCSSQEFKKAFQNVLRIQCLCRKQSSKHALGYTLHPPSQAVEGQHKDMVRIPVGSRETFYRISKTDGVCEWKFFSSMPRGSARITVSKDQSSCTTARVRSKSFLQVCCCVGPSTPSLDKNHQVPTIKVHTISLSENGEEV
As to the kind of experiment: SAFETYscan Calcium Flux ADRA1A Antagonist.
Description: as §1

The target in a further experiment is CNR2 (Homo sapiens, UniProt P34972). As to the kind of experiment: SAFETYscan cAMP CNR2 Agonist. An excerpt: (§2) Supplement jm3c00155_si_002.xlsx, sheet "SAFETYScan" | column: RC50 (uM); Hill; Max Response
A further experiment addresses ADRB1 (Homo sapiens, UniProt P08588). The experiment can be described thus: SAFETYscan cAMP ADRB1 Antagonist.
Description: as §2

The target of another experiment is DRD2S (Homo sapiens, UniProt P14416). The experiment can be described thus: SAFETYscan cAMP DRD2S Antagonist.
Description: as §1

A further experiment deals with KvLQT1/minK (Homo sapiens, UniProt P51787). As to the kind of experiment: SAFETYscan Ion Channel KvLQT1/minK Blocker.
Description: as §1

In another experiment the target is NMDAR (1A/2B) (Homo sapiens, UniProt Q05586+Q13224). As to the kind of experiment: SAFETYscan Ion Channel NMDAR (1A/2B) Blocker.
Description: as §1

A further experiment concerns the target GABAA (Homo sapiens, UniProt P14867+P18507+P47870). As to the kind of experiment: SAFETYscan Ion Channel GABAA Opener.
Description: as §1

For another experiment, the target named is T3, GR (Homo sapiens, UniProt P04150).
T3 sequence (P04150 1-777): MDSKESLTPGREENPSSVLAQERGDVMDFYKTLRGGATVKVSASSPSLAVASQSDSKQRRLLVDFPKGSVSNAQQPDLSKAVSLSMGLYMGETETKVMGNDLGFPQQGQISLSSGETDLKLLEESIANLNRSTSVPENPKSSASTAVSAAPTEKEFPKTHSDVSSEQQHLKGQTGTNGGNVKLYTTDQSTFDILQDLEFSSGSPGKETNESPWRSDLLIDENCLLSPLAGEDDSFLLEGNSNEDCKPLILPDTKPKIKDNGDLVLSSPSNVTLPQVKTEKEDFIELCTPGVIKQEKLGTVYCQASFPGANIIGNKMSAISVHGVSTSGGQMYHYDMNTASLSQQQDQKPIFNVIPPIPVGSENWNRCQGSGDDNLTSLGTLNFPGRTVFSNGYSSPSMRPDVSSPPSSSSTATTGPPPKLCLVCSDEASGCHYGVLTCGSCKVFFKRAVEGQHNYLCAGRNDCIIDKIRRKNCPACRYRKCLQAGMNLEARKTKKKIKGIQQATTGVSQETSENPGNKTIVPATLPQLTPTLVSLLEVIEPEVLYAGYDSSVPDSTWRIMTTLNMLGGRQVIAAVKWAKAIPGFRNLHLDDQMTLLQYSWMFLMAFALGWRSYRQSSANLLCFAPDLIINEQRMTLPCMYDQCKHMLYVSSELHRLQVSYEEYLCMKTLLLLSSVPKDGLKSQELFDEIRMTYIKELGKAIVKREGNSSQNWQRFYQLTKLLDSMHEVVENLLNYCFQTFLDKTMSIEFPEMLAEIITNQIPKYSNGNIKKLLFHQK
As to the kind of experiment: SAFETYscan NHR Protein Interaction GR Antagonist.
Description: as §1

A value given as a limit tells only on which side of the number the result lay.

Chain of CNR2 (P34972 whole entry): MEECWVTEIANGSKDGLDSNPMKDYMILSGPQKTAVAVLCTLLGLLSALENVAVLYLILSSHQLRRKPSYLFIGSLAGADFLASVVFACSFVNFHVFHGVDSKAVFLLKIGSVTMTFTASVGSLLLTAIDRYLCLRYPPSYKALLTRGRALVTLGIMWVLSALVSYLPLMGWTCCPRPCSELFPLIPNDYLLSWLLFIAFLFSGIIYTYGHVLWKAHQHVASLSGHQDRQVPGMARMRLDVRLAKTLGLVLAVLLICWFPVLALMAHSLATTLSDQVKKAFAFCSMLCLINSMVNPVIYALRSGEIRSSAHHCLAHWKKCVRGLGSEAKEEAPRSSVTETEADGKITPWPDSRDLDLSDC
Chain of ADRB1 (P08588 whole entry): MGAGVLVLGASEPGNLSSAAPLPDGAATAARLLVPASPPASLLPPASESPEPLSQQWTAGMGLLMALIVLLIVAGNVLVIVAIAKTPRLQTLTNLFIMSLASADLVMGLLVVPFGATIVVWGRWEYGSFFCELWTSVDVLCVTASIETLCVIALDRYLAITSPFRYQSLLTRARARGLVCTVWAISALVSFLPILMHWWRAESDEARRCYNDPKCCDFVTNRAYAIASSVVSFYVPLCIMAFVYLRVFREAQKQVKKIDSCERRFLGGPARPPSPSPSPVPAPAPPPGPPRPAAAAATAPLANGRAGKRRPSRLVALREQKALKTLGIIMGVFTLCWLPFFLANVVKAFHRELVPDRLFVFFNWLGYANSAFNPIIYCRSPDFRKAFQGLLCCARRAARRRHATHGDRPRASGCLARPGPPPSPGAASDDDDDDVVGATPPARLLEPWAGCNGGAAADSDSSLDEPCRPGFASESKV
Chain of DRD2S (P14416 1-414 isoform P14416-2): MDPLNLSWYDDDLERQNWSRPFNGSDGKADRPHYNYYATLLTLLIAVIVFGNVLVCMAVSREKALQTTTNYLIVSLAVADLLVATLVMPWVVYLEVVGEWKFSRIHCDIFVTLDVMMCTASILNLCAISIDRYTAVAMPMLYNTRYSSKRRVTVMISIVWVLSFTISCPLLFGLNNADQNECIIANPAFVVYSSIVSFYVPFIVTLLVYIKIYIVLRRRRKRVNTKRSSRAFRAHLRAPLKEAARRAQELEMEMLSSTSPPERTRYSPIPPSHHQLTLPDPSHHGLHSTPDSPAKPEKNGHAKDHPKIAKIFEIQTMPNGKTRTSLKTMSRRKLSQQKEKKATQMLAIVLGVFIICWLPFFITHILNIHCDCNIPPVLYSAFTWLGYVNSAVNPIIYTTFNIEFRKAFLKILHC
Chain of GABAA (P14867 28-456): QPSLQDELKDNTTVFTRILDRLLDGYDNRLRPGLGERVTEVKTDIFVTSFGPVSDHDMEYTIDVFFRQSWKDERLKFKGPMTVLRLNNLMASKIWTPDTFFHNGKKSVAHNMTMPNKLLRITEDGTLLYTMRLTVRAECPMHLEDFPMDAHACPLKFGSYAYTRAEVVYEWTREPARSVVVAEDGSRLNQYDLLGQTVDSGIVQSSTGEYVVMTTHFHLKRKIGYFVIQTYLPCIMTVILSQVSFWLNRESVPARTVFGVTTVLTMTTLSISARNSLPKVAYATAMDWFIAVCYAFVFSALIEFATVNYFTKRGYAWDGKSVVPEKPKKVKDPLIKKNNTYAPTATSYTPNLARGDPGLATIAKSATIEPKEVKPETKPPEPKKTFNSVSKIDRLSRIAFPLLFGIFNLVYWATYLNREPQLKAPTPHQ
Chain of GABAA (P47870 26-512): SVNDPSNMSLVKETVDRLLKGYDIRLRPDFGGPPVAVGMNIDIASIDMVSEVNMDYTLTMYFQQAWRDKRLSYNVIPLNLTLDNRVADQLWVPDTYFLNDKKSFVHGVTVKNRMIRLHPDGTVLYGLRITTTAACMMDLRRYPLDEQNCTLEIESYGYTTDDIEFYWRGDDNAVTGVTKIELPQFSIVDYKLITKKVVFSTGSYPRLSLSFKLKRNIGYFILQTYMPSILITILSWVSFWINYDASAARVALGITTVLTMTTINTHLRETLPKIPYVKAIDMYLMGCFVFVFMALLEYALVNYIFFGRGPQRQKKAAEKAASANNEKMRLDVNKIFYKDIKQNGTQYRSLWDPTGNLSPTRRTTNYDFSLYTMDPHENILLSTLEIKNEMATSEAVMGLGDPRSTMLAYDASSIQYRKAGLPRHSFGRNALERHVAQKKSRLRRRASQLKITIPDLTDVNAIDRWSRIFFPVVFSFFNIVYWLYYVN
Chain of GABAA (P18507 40-475): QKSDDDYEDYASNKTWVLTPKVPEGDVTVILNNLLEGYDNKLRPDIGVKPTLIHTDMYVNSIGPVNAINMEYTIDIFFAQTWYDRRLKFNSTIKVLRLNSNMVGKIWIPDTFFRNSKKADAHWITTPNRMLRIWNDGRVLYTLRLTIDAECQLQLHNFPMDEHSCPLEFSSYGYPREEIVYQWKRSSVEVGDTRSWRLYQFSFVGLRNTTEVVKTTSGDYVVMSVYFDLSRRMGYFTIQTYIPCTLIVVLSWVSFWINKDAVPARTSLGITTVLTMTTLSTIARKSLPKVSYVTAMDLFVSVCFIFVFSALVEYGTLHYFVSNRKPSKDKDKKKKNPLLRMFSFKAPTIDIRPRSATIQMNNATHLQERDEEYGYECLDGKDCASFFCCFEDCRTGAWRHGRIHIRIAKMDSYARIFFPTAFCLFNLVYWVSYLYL
Chain of ADORA2A (P29274 whole entry): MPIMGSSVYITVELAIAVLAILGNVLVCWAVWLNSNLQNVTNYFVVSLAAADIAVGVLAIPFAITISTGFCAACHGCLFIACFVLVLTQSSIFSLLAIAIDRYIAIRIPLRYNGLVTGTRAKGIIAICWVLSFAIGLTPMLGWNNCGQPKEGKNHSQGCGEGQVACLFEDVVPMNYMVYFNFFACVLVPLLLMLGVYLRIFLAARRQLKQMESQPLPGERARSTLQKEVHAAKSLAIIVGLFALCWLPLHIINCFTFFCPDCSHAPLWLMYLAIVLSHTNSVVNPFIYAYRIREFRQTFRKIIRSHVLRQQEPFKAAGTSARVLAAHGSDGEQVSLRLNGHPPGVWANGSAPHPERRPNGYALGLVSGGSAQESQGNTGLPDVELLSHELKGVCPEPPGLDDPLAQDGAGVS
Chain of NMDAR (1A/2B) (Q13224 27-1484, other chains not shown): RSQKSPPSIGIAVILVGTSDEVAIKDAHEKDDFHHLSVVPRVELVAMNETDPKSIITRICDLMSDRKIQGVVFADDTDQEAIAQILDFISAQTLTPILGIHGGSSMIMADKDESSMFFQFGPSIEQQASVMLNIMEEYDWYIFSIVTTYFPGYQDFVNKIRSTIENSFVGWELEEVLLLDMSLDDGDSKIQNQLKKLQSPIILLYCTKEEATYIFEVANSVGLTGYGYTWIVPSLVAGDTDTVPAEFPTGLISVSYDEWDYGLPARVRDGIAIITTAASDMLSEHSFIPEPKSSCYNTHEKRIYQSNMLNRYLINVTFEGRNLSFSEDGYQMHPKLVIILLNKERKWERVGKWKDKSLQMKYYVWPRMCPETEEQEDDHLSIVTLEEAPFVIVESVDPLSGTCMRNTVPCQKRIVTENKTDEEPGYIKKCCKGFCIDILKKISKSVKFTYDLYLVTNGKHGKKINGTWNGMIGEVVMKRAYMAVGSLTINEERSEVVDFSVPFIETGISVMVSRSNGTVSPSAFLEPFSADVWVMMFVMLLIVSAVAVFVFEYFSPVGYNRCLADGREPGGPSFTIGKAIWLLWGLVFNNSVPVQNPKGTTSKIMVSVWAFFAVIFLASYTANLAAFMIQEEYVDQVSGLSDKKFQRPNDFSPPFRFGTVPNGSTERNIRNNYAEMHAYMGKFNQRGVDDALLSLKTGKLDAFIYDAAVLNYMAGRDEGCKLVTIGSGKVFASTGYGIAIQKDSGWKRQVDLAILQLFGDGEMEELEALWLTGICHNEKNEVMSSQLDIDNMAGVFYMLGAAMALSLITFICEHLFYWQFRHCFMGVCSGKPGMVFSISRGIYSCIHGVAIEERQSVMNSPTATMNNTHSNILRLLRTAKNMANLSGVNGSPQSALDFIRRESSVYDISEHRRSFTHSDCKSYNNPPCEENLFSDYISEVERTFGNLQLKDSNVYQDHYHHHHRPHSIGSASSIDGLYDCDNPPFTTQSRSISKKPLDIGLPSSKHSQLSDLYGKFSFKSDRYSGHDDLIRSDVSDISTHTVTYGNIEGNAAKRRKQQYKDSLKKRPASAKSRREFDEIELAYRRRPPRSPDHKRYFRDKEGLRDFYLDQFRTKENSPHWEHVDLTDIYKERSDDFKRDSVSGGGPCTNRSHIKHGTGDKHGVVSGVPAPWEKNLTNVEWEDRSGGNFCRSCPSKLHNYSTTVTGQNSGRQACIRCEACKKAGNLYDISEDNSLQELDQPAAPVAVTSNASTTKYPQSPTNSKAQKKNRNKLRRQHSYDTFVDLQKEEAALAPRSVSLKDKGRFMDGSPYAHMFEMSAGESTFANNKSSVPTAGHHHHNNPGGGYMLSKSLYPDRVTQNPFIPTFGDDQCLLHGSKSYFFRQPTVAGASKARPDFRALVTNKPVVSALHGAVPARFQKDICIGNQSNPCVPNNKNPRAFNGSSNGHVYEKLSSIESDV

Broadly, the GI50 is the concentration giving 50% growth inhibition. One may read the EC50 as the concentration that produces a half-maximal response. For orientation: IC50 means the point on the concentration scale where inhibition reaches its midpoint. `Cn1c(=O)c2c(c3cc(Nc4ccnc(F)c4Cl)ccc31)N[C@@H](C1CC1)C(F)(F)CO2` [compound 17, (S)-10-((3-chloro-2-fluoropyridin-4-yl)amino)-2-cyclopropyl-3,3-difluoro-7-methyl-1,2,3,4-tetrahydro-[1,4]oxazepino[2,3-c]quinolin-6(7H)-one] had a GI50 in the experiment with OCI-Ly3 of 1.85 µM. In addition, the Emax at EDNRA (read-out: Max Response) amounted to 0%; on ADORA2A (read-out: Max Response) it was 10.4%; at ADRA1A (ADRA1A, Calcium Flux, Antagonist, read-out: Max Response), 0%; on CNR2 (CNR2, cAMP, Agonist, read-out: Max Response), 77.7%; at ADRB1 (read-out: Max Response), 88.7%; at DRD2S (DRD2S, cAMP, Antagonist, read-out: Max Response), 0%. Moreover, the Emax at KvLQT1/minK (read-out: Max Response) was found to be 12.6%; on NMDAR (1A/2B) (NMDAR (1A/2B), Ion Channel, Blocker, read-out: Max Response), 0%; on GABAA (GABAA, Ion Channel, Opener, read-out: Max Response), 1.24%; at GR (read-out: Max Response) it was 12.3%. In addition, the EC50 on EDNRA (read-out: RC50 (EC50)) was > 10 µM; at CNR2 it was 1.4 µM; on GABAA it was > 10 µM. For the same compound, the IC50 on ADORA2A (read-out: RC50 (IC50)) was > 10 µM; on ADRA1A, > 10 µM; on ADRB1 (read-out: RC50 (IC50)) it was 1.6 µM; against DRD2S it was > 10 µM; on KvLQT1/minK (read-out: RC50 (IC50)) it was > 10 µM; at NMDAR (1A/2B), > 10 µM. In addition, the IC50 at GR (read-out: RC50 (IC50)) was > 10 µM. Further, the Hill is on record as 0.61 at CNR2 (CNR2, cAMP, Agonist) and 1.19 at ADRB1.
